This test deals with PaFimX (Pseudomonas aeruginosa, UniProt Q9HUK6). Nature of the test: isothermal titration calorimetry. The test is classed as binding. Background: ITC needs no label: the signal is the heat of the interaction.

The Kd is the free concentration of one partner at which half of the binding sites on the other are occupied at equilibrium, for simple one-to-one binding. A low value points to higher affinity. `Nc1nc2c(ncn2[C@@H]2O[C@@H]3CO[P@](=O)(O)O[C@H]4[C@@H](O)[C@H](n5cnc6c(=O)[nH]c(N)nc65)O[C@@H]4CO[P@](=O)(O)O[C@H]3[C@H]2O)c(=O)[nH]1` [cdG] had a Kd of 144 nM.

The values are drawn from paper PMC12415608 (Molecular biology of the cell, 2025).
